Experimental data: the supplement of paper PMC6045584
± gives the standard deviation of the averaged measurements.

Assays:
NILOTINIB = compound: Cc1cn(-c2cc(NC(=O)c3ccc(C)c(Nc4nccc(-c5cccnc5)n4)c3)cc(C(F)(F)F)c2)cn1 [NILOTINIB]; assay: surviving fraction relative to DMSO-only wells; higher = less growth inhibition; conditions: exposure time: 5 days
Summary of the method: (§1)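 Log-phase tumour cells were seeded at 250–500 per well in 384-well plates and, from 24 hours after seeding, exposed continuously for five days to inhibitors at 0.5, 1, 5, 10, 50, 100, 500 and 1000 nM. Surviving fraction is CellTiter-Glo luminescence normalised to the median of DMSO-only wells. Luminescence was measured after 10 minutes at room temperature, and only lines screened three times with replicate Pearson r >0.7 and median Z' >0.3 were kept.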

AFIMOXIFENE = compound: CC/C(=C(\c1ccc(O)cc1)c1ccc(OCCN(C)C)cc1)c1ccccc1 [AFIMOXIFENE]; assay: as above; conditions: exposure time: 5 days
Summary of the method: as §1

Test System	surviving fraction (NILOTINIB; 0.5 nM)	surviving fraction (NILOTINIB; 1 nM)	surviving fraction (NILOTINIB; 5 nM)	surviving fraction (NILOTINIB; 10 nM)	surviving fraction (NILOTINIB; 50 nM)	surviving fraction (NILOTINIB; 100 nM)	surviving fraction (NILOTINIB; 500 nM)	surviving fraction (NILOTINIB; 1000 nM)	surviving fraction (AFIMOXIFENE; 0.5 nM)	surviving fraction (AFIMOXIFENE; 1 nM)	surviving fraction (AFIMOXIFENE; 5 nM)	surviving fraction (AFIMOXIFENE; 10 nM)	surviving fraction (AFIMOXIFENE; 50 nM)	surviving fraction (AFIMOXIFENE; 100 nM)	surviving fraction (AFIMOXIFENE; 500 nM)	surviving fraction (AFIMOXIFENE; 1000 nM)
22RV1 PROSTATE	1.04 ± 0.05	1.07 ± 0.026	1.13 ± 0.079	1 ± 0.022	1.18 ± 0.13	1.09 ± 0.1	1.09 ± 0.043	1.09 ± 0.038	1.06 ± 0.088	1.04 ± 0.089	1.09 ± 0.054	1.09 ± 0.016	1.1 ± 0.048	1.06 ± 0.08	1.13 ± 0.056	1.04 ± 0.079
93VU HEADNECK	1.01 ± 0.03	0.97 ± 0.013	1.1 ± 0.1	1.14 ± 0.058	0.964 ± 0.049	1.03 ± 0.088	0.938 ± 0.076	0.872 ± 0.057	1.25 ± 0.11	1.2 ± 0.11	1.34 ± 0.074	1.32 ± 0.075	1.27 ± 0.053	1.2 ± 0.1	1.24 ± 0.12	1.08 ± 0.068
143B BONE	1.09 ± 0.076	1.07 ± 0.043	1.13 ± 0.1	1.11 ± 0.081	1.14 ± 0.12	1.14 ± 0.11	1.1 ± 0.11	1.11 ± 0.11		1.09 ± 0.041	1.15 ± 0.11	1.1 ± 0.036	1.12 ± 0.035	1.1 ± 0.033	1.14 ± 0.12	1.12 ± 0.15
A549 LUNG	1.06 ± 0.018	1.042 ± 0.01	1.11 ± 0.024	1.08 ± 0.037	1.1 ± 0.03	1.13 ± 0.045	1.08 ± 0.028	1.11 ± 0.043	1.07 ± 0.021	1.065 ± 0.0068	1.06 ± 0.022	1.08 ± 0.013	1.05 ± 0.023	1.1 ± 0.03	1.09 ± 0.022	1.11 ± 0.032
ASKA SYNOVIAL	1.13 ± 0.033	1.02 ± 0.11	1.145 ± 0.0067	1.15 ± 0.036	1.08 ± 0.08	0.988 ± 0.088	0.936 ± 0.083	0.864 ± 0.066	1.11 ± 0.056	1.18 ± 0.097	1.18 ± 0.096	1.23 ± 0.031	1.18 ± 0.029	1.17 ± 0.069	1.04 ± 0.1	1.14 ± 0.064
BT20 BREAST	1.076 ± 0.0072	1.073 ± 0.0027	1.06 ± 0.05	1.16 ± 0.084	0.913 ± 0.14	1.01 ± 0.14	0.984 ± 0.12	0.878 ± 0.062	1.32 ± 0.11	1.27 ± 0.07	1.24 ± 0.065	1.3 ± 0.096	1.19 ± 0.086	1.28 ± 0.037	1.7 ± 0.076	1.9 ± 0.13
BT549 BREAST	1.1 ± 0.15	0.924 ± 0.095	1.1 ± 0.11	1.12 ± 0.11	1.05 ± 0.11	0.93 ± 0.14	1.01 ± 0.16	0.964 ± 0.15	0.924 ± 0.072	1.01 ± 0.1	1.01 ± 0.12	0.926 ± 0.082	0.93 ± 0.046	1.04 ± 0.013	1.07 ± 0.14	0.865 ± 0.052
C33A CERVIX	0.986 ± 0.1	1.08 ± 0.05	1.07 ± 0.031	1.01 ± 0.06	1.13 ± 0.067	1.27 ± 0.031	1.2 ± 0.086	1.14 ± 0.12	1.06 ± 0.065	1.07 ± 0.062	1.06 ± 0.15	1.1 ± 0.047	1.14 ± 0.083	1.21 ± 0.029	1.22 ± 0.12	1.34 ± 0.069
CADOES1 SOFT TISSUE	1.02 ± 0.17	0.987 ± 0.05	1.01 ± 0.13	0.93 ± 0.071	0.932 ± 0.13	1.02 ± 0.045	0.963 ± 0.055	1.01 ± 0.057	1.04 ± 0.054	0.998 ± 0.092	0.842 ± 0.12	0.986 ± 0.066	1.07 ± 0.064	0.978 ± 0.067	1.14 ± 0.042	0.967 ± 0.087
CAL51 BREAST	0.977 ± 0.039	0.897 ± 0.066	1.01 ± 0.038	0.947 ± 0.073	1.03 ± 0.068	1.01 ± 0.06	0.952 ± 0.059	0.971 ± 0.032	0.988 ± 0.042	0.966 ± 0.054	1.05 ± 0.1	0.984 ± 0.029	1.04 ± 0.046	1.05 ± 0.028	1.08 ± 0.036	0.969 ± 0.028
CAL72 BONE	1.02 ± 0.031	1.06 ± 0.018	1.03 ± 0.038	1.06 ± 0.018	0.979 ± 0.033	1.02 ± 0.013	0.969 ± 0.062	0.977 ± 0.06	1.1 ± 0.045	1.08 ± 0.069	1.11 ± 0.037	1.12 ± 0.034	1.14 ± 0.082	1.13 ± 0.07	0.967 ± 0.17	0.832 ± 0.21
CAL120 BREAST	1.02 ± 0.041	1.02 ± 0.012	1.04 ± 0.052	1.03 ± 0.035	1.04 ± 0.027	1.01 ± 0.072	1.04 ± 0.081	1.02 ± 0.049	1 ± 0.031	0.972 ± 0.017	1.02 ± 0.074	1 ± 0.044	1.04 ± 0.041	0.994 ± 0.045	0.999 ± 0.031	0.948 ± 0.027
CASKI CERVIX	0.914 ± 0.026	0.993 ± 0.024	1.01 ± 0.063	0.96 ± 0.045	0.88 ± 0.063	0.785 ± 0.035	0.764 ± 0.13	0.77 ± 0.075	0.882 ± 0.064	0.93 ± 0.023	0.989 ± 0.046	0.977 ± 0.03	1.1 ± 0.071	1.05 ± 0.017	1.01 ± 0.043	0.9003 ± 0.0032
CHLA90 AUTONOMIC GANGLIA	0.993 ± 0.057	1.01 ± 0.082	0.957 ± 0.036	1.09 ± 0.076	1.1 ± 0.055	1.14 ± 0.12	1.11 ± 0.016	1.09 ± 0.077	0.969 ± 0.013	0.966 ± 0.061	0.985 ± 0.077	0.98 ± 0.039		1.16 ± 0.078	1.09 ± 0.088	1.05 ± 0.11
CME SYNOVIAL	1.17 ± 0.064	1.15 ± 0.24	1.31 ± 0.15	1.21 ± 0.091	1.1 ± 0.12	1 ± 0.099	0.926 ± 0.11	0.483 ± 0.026	1.26 ± 0.1	1.31 ± 0.15	1.42 ± 0.13	1.46 ± 0.13	1.41 ± 0.13	1.43 ± 0.1	1.28 ± 0.085	1.4 ± 0.053
COLO320DM LARGE INTESTINE	1.12 ± 0.059	1.04 ± 0.086	1.05 ± 0.13	1.08 ± 0.061	1.06 ± 0.095	0.961 ± 0.022	0.949 ± 0.024	0.764 ± 0.04	1.14 ± 0.071	1.05 ± 0.08	1.05 ± 0.011	1.11 ± 0.045	1.17 ± 0.079	1.18 ± 0.056	1.16 ± 0.05	1.13 ± 0.018
DU4475 BREAST	1.12 ± 0.018	1.06 ± 0.023	1.14 ± 0.13	1.06 ± 0.063	0.925 ± 0.088	1.06 ± 0.1	1.05 ± 0.066	0.9 ± 0.061	0.958 ± 0.1	0.963 ± 0.1	0.964 ± 0.053	0.903 ± 0.057	0.825 ± 0.017	0.717 ± 0.031	0.872 ± 0.17	0.651 ± 0.11
H23 LUNG	1.04 ± 0.077	1.05 ± 0.052	1.14 ± 0.025	1.08 ± 0.033	1.24 ± 0.096	1.26 ± 0.088	1.18 ± 0.094	1.17 ± 0.1	1.06 ± 0.045	1.05 ± 0.026	1.07 ± 0.05	1.03 ± 0.016	1.07 ± 0.023	1.09 ± 0.094	1.07 ± 0.08	1.06 ± 0.11
HCC78 LUNG	1.01 ± 0.092	0.993 ± 0.085	0.994 ± 0.055	1.1 ± 0.12	1.05 ± 0.09	1.1 ± 0.095	0.719 ± 0.085	0.525 ± 0.03	0.893 ± 0.16	0.908 ± 0.17	0.902 ± 0.39	1.05 ± 0.19		1.13 ± 0.077	1.29 ± 0.2	1.08 ± 0.094
HCC202 BREAST	1.36 ± 0.11	1.08 ± 0.044	0.83 ± 0.15	0.987 ± 0.5	1.01 ± 0.22	1.09 ± 0.069	1.08 ± 0.052	0.912 ± 0.034	1.15 ± 0.4	1.2 ± 0.061	1.53 ± 0.67	1.19 ± 0.14	1.03 ± 0.083	1.17 ± 0.17	0.881 ± 0.29	1.13 ± 0.51
HCC1395 BREAST	1.01 ± 0.038	0.988 ± 0.097	1.2 ± 0.074	1.19 ± 0.023	1.03 ± 0.055	1.03 ± 0.16	0.854 ± 0.062	0.929 ± 0.14	1.26 ± 0.13	1.15 ± 0.057	1.33 ± 0.13	1.25 ± 0.048	1.19 ± 0.13	1.12 ± 0.12	1.04 ± 0.11	1.09 ± 0.16
